Source: US20230115176A1 (Ra Pharmaceuticals, Inc., priority 2019, published 2023)
Blank lines part the entries; values can stand above or below the compound they belong to.

Legend:
purified human C5 = purified human C5 (Homo sapiens, UniProt P01031); assay: Red blood cell hemolysis assay, optical, absorbance 412 nm (Example 3, Table 6); format: cell-based; conditions: antibody-sensitized sheep erythrocytes, 1.5% human C5 depleted sera, 0.5 nM human C5; average where replicates
Description: Experiments were carried out using a red blood cell (RBC) hemolysis assay to assess compound inhibition of RBC lysis. […] The assay was carried out using 1.5% human C5 depleted sera and 0.5 nM purified human C5.
GVB++ buffer (Complement Technology, Tyler, Tex.) was heated at 37° C. for a minimum of 20 minutes. The human C5 depleted sera and purified human C5 were rapidly thawed at 37° C. and then stored on ice or wet ice, respectively. The compound stock (10 mM, DMSO) was serially diluted in 100% DMSO to obtain ten 6-fold dilutions before addition of GVB++. Sera dilution was prepared by adding 5 mL of GVB++ to a 15 mL conical tube, removing 600 μL of the GVB++ and adding 600 μL of the 100% sera. The tube was mixed by inverting three times. A volume of 25 μL of the diluted sera was added to each well so that the final concentration of sera in the well was 1.5%. C5 dilution was prepared by adding 5 mL of GVB++ to a 15 mL conical tube, removing 4 μL of the GVB++ and adding 4 μL of the C5 stock. The tube was mixed by inverting three times. A volume of 25 μL was added to each well so that the final amount of C5 was 0.5 nM in each well. The antibody-sensitized sheep erythrocytes (EAs) were centrifuged at 1,000× gravity at 22° C. for 3 minutes. The supernatant was pipetted off without disrupting the pellet. The pellet was then resuspended in GVB++ with the same volume removed. Resuspended EAs were mixed by gently inverting the tube.
Five controls were run on each plate: (1) EAs only=100 μL EAs+50 μL GVB++ with 4% DMSO+50 μL GVB++; (2) EA+Sera=100 μL EAs+50 μL GVB++ with 4% DMSO+25 μL Sera dilution+25 μL GVB++; (3) EA+C5=100 μL EAs+50 μL GVB++ with 4% DMSO+25 μL C5 dilution+25 μL GVB++; (4) EA+Sera+C5=100 μL EAs+50 μL GVB++ with 4% DMSO+25 μL Sera dilution+25 μL C5; (5) GVB++ Only=200 μL GVB++. Other wells included: GVB++ with 4% DMSO=20 μL DMSO+480 μL GVB++. All samples were analyzed in duplicate. The compound dose response curve was generated using samples prepared with 100 μL EA+50 μL compound dilution+25 μL C5 dilution+25 μL sera dilution.
Test plates were prepared by adding 100 μL of EAs, 50 μL of compound dilution, 25 μL of sera dilution, and 25 μL of C5 dilution to individual wells of a 96-well tissue culture-treated clear microtitre plate (USA Scientific, Ocala, Fla.) and resuspending by pipetting up and down three times. The samples were incubated at 37° C. for one hour. At the completion of the incubation, the plates were centrifuged at 1,000× gravity for 3 minutes. 100 μl of supernatant were transferred to a new plate and the absorbance was read at 412 nm. Data was fit with a log-logit formula producing a dose-response curve and IC50.
“IC50” refers to the half maximal inhibitory concentration, where the value is the concentration of the inhibitor needed to reduce red blood cell hemolysis by half. Where replicate analysis was conducted, average IC50 values are provided along with standard deviation (SD) values.

Human C5 = target: T1, Human C5 (Homo sapiens, UniProt P01031); assay: Surface plasmon resonance (SPR), compounds on immobilized human C5 (Example 2, Table 5); format: binding; conditions: lowest value where a range of compound concentrations were analyzed
T1 construct: purchased Complement Technology
T1 sequence (P01031 19-1676): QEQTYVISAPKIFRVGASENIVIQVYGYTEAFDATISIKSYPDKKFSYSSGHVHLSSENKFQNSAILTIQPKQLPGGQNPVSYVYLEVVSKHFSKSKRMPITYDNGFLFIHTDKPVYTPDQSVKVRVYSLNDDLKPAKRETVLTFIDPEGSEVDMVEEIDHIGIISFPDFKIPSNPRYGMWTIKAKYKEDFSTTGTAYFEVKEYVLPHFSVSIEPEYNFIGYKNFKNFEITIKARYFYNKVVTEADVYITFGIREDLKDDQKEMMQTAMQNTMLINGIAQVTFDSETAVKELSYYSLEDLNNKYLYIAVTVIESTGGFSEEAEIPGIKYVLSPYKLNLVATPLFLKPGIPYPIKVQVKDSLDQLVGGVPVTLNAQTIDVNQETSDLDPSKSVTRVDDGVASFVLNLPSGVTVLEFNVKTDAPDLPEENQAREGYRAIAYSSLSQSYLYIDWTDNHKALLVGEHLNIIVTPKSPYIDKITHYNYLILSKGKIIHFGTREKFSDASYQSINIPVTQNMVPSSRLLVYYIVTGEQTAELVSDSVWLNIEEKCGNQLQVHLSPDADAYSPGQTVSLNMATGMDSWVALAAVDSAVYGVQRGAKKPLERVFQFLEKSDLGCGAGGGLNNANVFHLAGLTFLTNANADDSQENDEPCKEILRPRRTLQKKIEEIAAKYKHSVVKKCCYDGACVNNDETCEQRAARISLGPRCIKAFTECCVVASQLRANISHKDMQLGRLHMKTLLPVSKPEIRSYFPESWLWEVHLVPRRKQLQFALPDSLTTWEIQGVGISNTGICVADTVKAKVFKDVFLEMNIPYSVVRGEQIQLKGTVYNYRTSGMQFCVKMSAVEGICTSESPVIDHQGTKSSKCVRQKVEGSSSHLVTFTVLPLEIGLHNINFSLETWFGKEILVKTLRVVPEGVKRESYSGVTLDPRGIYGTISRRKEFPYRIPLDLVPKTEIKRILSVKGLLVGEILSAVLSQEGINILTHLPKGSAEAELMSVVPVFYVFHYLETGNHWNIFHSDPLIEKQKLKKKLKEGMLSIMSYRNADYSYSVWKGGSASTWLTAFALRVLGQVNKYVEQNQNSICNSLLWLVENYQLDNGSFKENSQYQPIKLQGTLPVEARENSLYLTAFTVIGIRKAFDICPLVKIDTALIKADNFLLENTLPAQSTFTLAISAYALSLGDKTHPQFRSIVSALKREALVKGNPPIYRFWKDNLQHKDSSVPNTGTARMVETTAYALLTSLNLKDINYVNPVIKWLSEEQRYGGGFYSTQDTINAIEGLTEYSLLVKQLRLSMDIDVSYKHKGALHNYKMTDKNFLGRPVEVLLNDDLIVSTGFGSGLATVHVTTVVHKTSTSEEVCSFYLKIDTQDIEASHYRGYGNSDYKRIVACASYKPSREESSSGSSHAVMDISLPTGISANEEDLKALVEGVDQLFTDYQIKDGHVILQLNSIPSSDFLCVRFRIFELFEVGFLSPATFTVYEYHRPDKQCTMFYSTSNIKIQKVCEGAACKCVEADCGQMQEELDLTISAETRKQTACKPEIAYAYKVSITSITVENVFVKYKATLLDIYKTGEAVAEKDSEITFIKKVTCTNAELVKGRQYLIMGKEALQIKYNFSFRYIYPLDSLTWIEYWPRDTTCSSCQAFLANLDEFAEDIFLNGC

Sequence of purified human C5 (P01031 19-1676): as above

Kd (Human C5): 17 nM
Structure (SMILES): COc1ccc(NC(=O)NCc2ccnc3[nH]ccc23)cc1OCCCC(C)C [SM0013]
IC50 (purified human C5): 327 nM

Kd (Human C5): 3200 nM
Structure (SMILES): COc1ccc(NC(=O)N[C@@H](C)c2ccccc2)cc1OCC(C)(C)N(C)C [SM0107]

Kd (Human C5): 3200 nM
Structure (SMILES): COc1ccc(NC(=O)N[C@@H](C)c2ccc(Br)cc2)cc1OCCCC(C)C [SM0108]

Kd (Human C5): 3800 nM
Structure (SMILES): COc1ccc(NC(=O)N(C)CCO)cc1OCCCC(C)C [SM0109]

Kd (Human C5): 3900 nM
Structure (SMILES): CCCOc1cc(NC(=O)O[C@@H](C)c2ccccc2)ccc1OC [SM0110]

Kd (Human C5): 4700 nM
Structure (SMILES): COc1ccc(NC(=O)NCC2CCC(F)(F)CC2)cc1OCCCC(C)C [SM0111]

Kd (Human C5): 5500 nM
Structure (SMILES): CCCCCCOc1ccc(NC(=O)N[C@@H](CO)c2ccccc2)cc1 [SM0112]

Kd (Human C5): 601 nM
Structure (SMILES): COc1ccc(NC(=O)NCc2ccc(S(C)(=O)=O)cc2)cc1OCCCC(C)C [SM0113]

Kd (Human C5): 6400 nM
Structure (SMILES): COc1ccc(NC(=O)N[C@@H](CO)c2ccccc2)cc1OCc1cncnc1 [SM0114, 1-[(1R)-2-hydroxy-1-phenyl-ethyl]-3-[4-methoxy-3-(pyrimidin-5-ylmethoxy)phenyl] urea]

Kd (Human C5): 6700 nM
Structure (SMILES): COc1ccc(NC(=O)N[C@@H](CO)c2ccccc2)cc1OCCN1CCN(C)CC1 [SM0115]

Kd (Human C5): 690 nM
Structure (SMILES): CCCCN(C)C(=O)c1cccc(NC(=O)N[C@@H](CO)c2ccccc2)c1 [SM0116, N-butyl-3-[[(1R)-2-hydroxy-1-phenyl-ethyl]carbamoylamino]-N-methyl-benzamide]

Kd (Human C5): 7600 nM
Structure (SMILES): COc1ccc(NC(=O)NCCc2ccccc2)cc1OCCCC(C)C [SM0117]

Kd (Human C5): 8100 nM
Structure (SMILES): COc1ccc(NC(=O)N[C@H](CCO)c2ccccc2)cc1OCCCC(C)C [SM0118]

Kd (Human C5): 830 nM
Structure (SMILES): COc1ccc(NC(=O)N[C@@H](CO)c2ccccc2)cc1OCCCC#N [SM0119]

Kd (Human C5): 9500 nM
Structure (SMILES): COC[C@H](NC(=O)Nc1ccc(OC)c(OCCCC(C)C)c1)c1ccccc1 [SM0120]

Kd (Human C5): 9500 nM
Structure (SMILES): COc1ccc(NC(=O)NC(CN(C)C)c2ccccc2)cc1OCCCC(C)C (centres unmarked) [SM0121]

Second part, the compound before the results:

Structure (SMILES): COc1ccc(NC(=O)NC(CO)c2ccc(Cl)cc2)cc1OCCCC(C)C (centres unmarked)
IC50 (purified human C5): 3390 nM | Kd (Human C5): 320 nM

Structure (SMILES): COc1ccc(NC(=O)NC(CO)c2ccccc2OC)cc1OCCCC(C)C (centres unmarked) [SM0003]
IC50 (purified human C5): 26.8 nM | Kd (Human C5): 14 nM

Structure (SMILES): COc1ccc(NC(=O)NCc2ccccc2O)cc1OCCCC(C)C [SM0004]
IC50 (purified human C5): 42.6 nM | Kd (Human C5): 28 nM

Structure (SMILES): COc1ccc(NC(=O)NCc2ccccc2O)cc1CCCCC(C)C [SM0005]
IC50 (purified human C5): 65.8 nM | Kd (Human C5): 37 nM

Structure (SMILES): COc1ccc(NC(=O)NCc2ccccc2OC)cc1CCCCC(C)C [SM0007]
IC50 (purified human C5): 165 nM | Kd (Human C5): 90 nM

Structure (SMILES): COc1ccc([C@H](CO)NC(=O)Nc2ccc(OC)c(OCCCC(C)C)c2)cc1 [SM0008]
IC50 (purified human C5): 176 nM | Kd (Human C5): 45 nM

Structure (SMILES): COc1ccc(NC(=O)N[C@@H](C)c2ccccc2)cc1OCCCC(C)C [SM0009]
IC50 (purified human C5): 198 nM | Kd (Human C5): 647 nM

Structure (SMILES): COc1ccc(NC(=O)N[C@@H](CO)c2ccccc2)cc1CCCCC(C)C [SM0010]
IC50 (purified human C5): 226 nM | Kd (Human C5): 107 nM

Structure (SMILES): COc1ccc(NC(=O)NC(CO)c2ccc(F)cc2)cc1OCCCC(C)C (centres unmarked) [SM0020]
IC50 (purified human C5): 478 nM

Structure (SMILES): COc1cccc(C(CO)NC(=O)Nc2ccc(OC)c(OCCCC(C)C)c2)c1 (centres unmarked) [SM0028]
IC50 (purified human C5): 896 nM

Structure (SMILES): COc1ccc(CNC(=O)Nc2ccc(OC)c(OCCCC(C)C)c2)cc1 [SM0041]
IC50 (purified human C5): 1800 nM

Structure (SMILES): COc1ccc(NC(=O)N[C@@H](CO)c2ccccc2)cc1OCCCCl [SM0051]
IC50 (purified human C5): 3060 nM

Structure (SMILES): COc1ccc(NC(=O)NC(CO)c2cnn(C)c2)cc1OCCCC(C)C (centres unmarked) [SM0055]
IC50 (purified human C5): 3450 nM

Structure (SMILES): COc1ccc(NC(=O)N[C@@H](CO)c2ccccc2)cc1Br [SM0060]
IC50 (purified human C5): 4470 nM

Structure (SMILES): COc1ccc(NC(=O)NCc2cccc(S(C)(=O)=O)c2)cc1OCCCC(C)C [SM0079]
IC50 (purified human C5): 12700 nM

Structure (SMILES): COc1ccc(NC(=O)NC(c2ccccc2F)C(C)O)cc1OCCCC(C)C (centres unmarked) [SM0082]
IC50 (purified human C5): 14500 nM

Structure (SMILES): COc1ccc(NC(=O)N[C@@H](CO)c2ccccc2)cc1OCC(F)(F)F [SM0085]
IC50 (purified human C5): 16100 nM

Structure (SMILES): COc1ccc(NC(=O)NCc2ccc3ccccc3n2)cc1OCCCC(C)C [SM0086]
IC50 (purified human C5): 16600 nM

Structure (SMILES): COc1ccc(NC(=O)N[C@@H](CO)c2ccccc2)cc1OCc1ccccc1 [SM0088]
IC50 (purified human C5): 18400 nM
